Measurements from ChEMBL document CHEMBL4229379, “Synthesis and structure-activity relationship of novel bisindole amidines active against MDR Gram-positive and Gram-negative bacteria” (Eur J Med Chem, 2018).
≈ marks a conversion by molar mass, not a printed value.

Experiments:
[1] = system: Staphylococcus epidermidis; experiment: Antibacterial activity against methicillin-sensitive Staphylococcus epidermidis ATCC 12228 after 18 hrs by CLSI broth microdilution method; type: functional; settings: ATCC 12228, 18 h
[2] = system: Staphylococcus epidermidis; experiment: Antibacterial activity against methicillin-resistant Staphylococcus epidermidis 12-8 after 18 hrs by CLSI broth microdilution method; type: functional; settings: 12-8, 18 h
[3] = system: Staphylococcus aureus; experiment: Antibacterial activity against methicillin-sensitive Staphylococcus aureus ATCC 29213 after 18 hrs by CLSI broth microdilution method; type: functional; settings: ATCC 29213, 18 h
[4] = system: Staphylococcus aureus; experiment: Antibacterial activity against methicillin-resistant Staphylococcus aureus 12-33 after 18 hrs by CLSI broth microdilution method; type: functional; settings: 12-33, 18 h
[5] = system: Enterococcus faecalis; experiment: Antibacterial activity against vancomycin-sensitive Enterococcus faecalis ATCC 29212 after 18 hrs by CLSI broth microdilution method; type: functional; settings: ATCC 29212, 18 h
[6] = system: Enterococcus faecalis; experiment: Antibacterial activity against vancomycin-resistant Enterococcus faecalis 09-9 after 18 hrs by CLSI broth microdilution method; type: functional; settings: 09-9, 18 h
[7] = system: Enterococcus faecium; experiment: Antibacterial activity against vancomycin-resistant Enterococcus faecium ATCC 700221 after 18 hrs by CLSI broth microdilution method; type: functional; settings: ATCC 700221, 18 h
[8] = system: Enterococcus faecium; experiment: Antibacterial activity against vancomycin-sensitive Enterococcus faecium 12-3 after 18 hrs by CLSI broth microdilution method; type: functional; settings: 12-3, 18 h
[9] = system: Escherichia coli; experiment: Antibacterial activity against extended-spectrum beta-lactamase deficient Escherichia coli ATCC 25922 after 18 hrs by CLSI broth microdilution method; type: functional; settings: ATCC 25922, 18 h
[10] = system: Escherichia coli; experiment: Antibacterial activity against extended-spectrum beta-lactamase harboring Escherichia coli 12-15 after 18 hrs by CLSI broth microdilution method; type: functional; settings: 12-15, 18 h
[11] = system: Klebsiella pneumoniae; experiment: Antibacterial activity against extended-spectrum beta-lactamase harboring Klebsiella pneumoniae ATCC 700603 after 18 hrs by CLSI broth microdilution method; type: functional; settings: Klebsiella pneumoniae, 700603, 18 h
[12] = system: Klebsiella pneumoniae; experiment: Antibacterial activity against new delhi metallo-beta-lactamase-1 harboring Klebsiella pneumoniae ATCC BAA-2146 after 18 hrs by CLSI broth microdilution method; type: functional; settings: ATCC BAA-2146, 18 h
[13] = system: Klebsiella pneumoniae; experiment: Antibacterial activity against extended-spectrum beta-lactamase harboring Klebsiella pneumoniae 12-8 after 18 hrs by CLSI broth microdilution method; type: functional; settings: 12-8, 18 h
[14] = system: Pseudomonas aeruginosa; experiment: Antibacterial activity against Pseudomonas aeruginosa ATCC 27853 after 18 hrs by CLSI broth microdilution method; type: functional; settings: ATCC 27853, 18 h
[15] = system: Acinetobacter calcoaceticus; experiment: Antibacterial activity against Acinetobacter calcoaceticus ATCC 19606 after 18 hrs by CLSI broth microdilution method; type: functional; settings: ATCC 19606, 18 h
[16] = system: Enterobacter cloacae; experiment: Antibacterial activity against Enterobacter cloacae ATCC 43560 after 18 hrs by CLSI broth microdilution method; type: functional; settings: ATCC 43560, 18 h
[17] = system: Proteus mirabilis; experiment: Antibacterial activity against Proteus mirabilis 12-6 after 18 hrs by CLSI broth microdilution method; type: functional; settings: 12-6, 18 h
[18] = Cytotoxicity against HEK293T cells assessed as reduction in cell viability after 48 hrs by MTS assay; type: cell-based, HEK-293T; settings: human
[19] = system: Staphylococcus epidermidis; experiment: Antibacterial activity against methicillin-sensitive Staphylococcus epidermidis 12-6 after 18 hrs by CLSI broth microdilution method; type: functional; settings: 12-6, 18 h
[20] = system: Staphylococcus aureus; experiment: Antibacterial activity against methicillin-resistant Staphylococcus aureus ATCC 33591 after 18 hrs by CLSI broth microdilution method; type: functional; settings: ATCC 33591, 18 h
[21] = system: Staphylococcus aureus; experiment: Antibacterial activity against methicillin-sensitive Staphylococcus aureus 15 after 18 hrs by CLSI broth microdilution method; type: functional; settings: Staphylococcus aureus, 15, 18 h
[22] = system: Staphylococcus aureus; experiment: Antibacterial activity against methicillin-sensitive Staphylococcus aureus 12-28 after 18 hrs by CLSI broth microdilution method; type: functional; settings: 12-28, 18 h
[23] = system: Enterococcus faecalis; experiment: Antibacterial activity against vancomycin-resistant Enterococcus faecalis ATCC 51299 after 18 hrs by CLSI broth microdilution method; type: functional; settings: ATCC 51299, 18 h
[24] = system: Enterococcus faecalis; experiment: Antibacterial activity against vancomycin-sensitive Enterococcus faecalis 12-5 after 18 hrs by CLSI broth microdilution method; type: functional; settings: 12-5, 18 h
[25] = system: Enterococcus faecium; experiment: Antibacterial activity against vancomycin-resistant Enterococcus faecium 12-1 after 18 hrs by CLSI broth microdilution method; type: functional; settings: 12-1, 18 h
[26] = system: Escherichia coli; experiment: Antibacterial activity against extended-spectrum beta-lactamase deficient Escherichia coli 1515 after 18 hrs by CLSI broth microdilution method; type: functional; settings: Escherichia coli, 1515, 18 h
[27] = system: Escherichia coli; experiment: Antibacterial activity against extended-spectrum beta-lactamase deficient Escherichia coli 12-14 after 18 hrs by CLSI broth microdilution method; type: functional; settings: 12-14, 18 h
[28] = system: Klebsiella pneumoniae; experiment: Antibacterial activity against extended-spectrum beta-lactamase deficient Klebsiella pneumoniae 7 after 18 hrs by CLSI broth microdilution method; type: functional; settings: Klebsiella pneumoniae, 7, 18 h
[29] = system: Klebsiella pneumoniae; experiment: Antibacterial activity against extended-spectrum beta-lactamase deficient Klebsiella pneumoniae 12-4 after 18 hrs by CLSI broth microdilution method; type: functional; settings: 12-4, 18 h
[30] = system: Pseudomonas aeruginosa; experiment: Antibacterial activity against Pseudomonas aeruginosa PAO1 after 18 hrs by CLSI broth microdilution method; type: functional; settings: PAO1, 18 h
[31] = system: Pseudomonas aeruginosa; experiment: Antibacterial activity against Pseudomonas aeruginosa 12-16 after 18 hrs by CLSI broth microdilution method; type: functional; settings: 12-16, 18 h
[32] = system: Klebsiella aerogenes; experiment: Antibacterial activity against Enterobacter aerogenes ATCC 13048 after 18 hrs by CLSI broth microdilution method; type: functional; settings: ATCC 13048, 18 h
[33] = system: Serratia marcescens; experiment: Antibacterial activity against Serratia marcescens ATCC 21074 after 18 hrs by CLSI broth microdilution method; type: functional; settings: ATCC 21074, 18 h
[34] = system: Providencia rettgeri; experiment: Antibacterial activity against Providencia rettgeri ATCC 31052 after 18 hrs by CLSI broth microdilution method; type: functional; settings: ATCC 31052, 18 h
[35] = system: Proteus vulgaris; experiment: Antibacterial activity against Proteus vulgaris ATCC 29905 after 18 hrs by CLSI broth microdilution method; type: functional; settings: ATCC 29905, 18 h
[36] = system: Stenotrophomonas maltophilia; experiment: Antibacterial activity against Stenotrophomonas maltophilia ATCC 13636 after 18 hrs by CLSI broth microdilution method; type: functional; settings: ATCC 13636, 18 h
[37] = system: Citrobacter freundii; experiment: Antibacterial activity against Citrobacter freundii ATCC 43864 after 18 hrs by CLSI broth microdilution method; type: functional; settings: ATCC 43864, 18 h

Row | SMILES | MIC [1] [µg/mL] | MIC [2] [µg/mL] | MIC [3] [µg/mL] | MIC [4] [µg/mL] | MIC [5] [µg/mL] | MIC [6] [µg/mL] | MIC [7] [µg/mL] | MIC [8] [µg/mL] | MIC [9] [µg/mL] | MIC [10] [µg/mL] | MIC [11] [µg/mL] | MIC [12] [µg/mL] | MIC [13] [µg/mL] | MIC [14] [µg/mL] | MIC [15] [µg/mL] | MIC [16] [µg/mL] | MIC [17] [µg/mL] | CC50 at 48 h [18] [µg/mL] | MIC [19] [µg/mL] | MIC [20] [µg/mL] | also measured
1 | CNC(=N)c1ccc2cc(-c3cncc(-c4cc5ccc(C(=N)NC)cc5[nH]4)c3)[nH]c2c1 | 4 (≈ 9.49 µM) | 8 (≈ 19 µM) | > 64 | > 64 | > 64 | > 64 | > 64 | > 64 | > 64 | > 64 | > 64 | > 64 | > 64 | > 64 | > 64 | > 64 | > 64 | > 100 | 8 (≈ 19 µM) | > 64 | MIC [21]: > 64 µg/mL; MIC [22]: > 64 µg/mL; MIC [23]: > 64 µg/mL; MIC [24]: > 64 µg/mL; MIC [25]: > 64 µg/mL; MIC [26]: > 64 µg/mL; MIC [27]: > 64 µg/mL; MIC [28]: > 64 µg/mL; MIC [29]: > 64 µg/mL; MIC [30]: > 64 µg/mL; MIC [31]: > 64 µg/mL; MIC [32]: > 64 µg/mL; MIC [33]: > 64 µg/mL; MIC [34]: > 64 µg/mL; MIC [35]: > 64 µg/mL; MIC [36]: > 64 µg/mL; MIC [37]: > 64 µg/mL
2 | N=C(c1ccc2cc(-c3ccc(-c4cc5ccc(C(=N)N6CC=CCC6)cc5[nH]4)cc3)[nH]c2c1)N1CC=CCC1 | 1 (≈ 1.91 µM) | 2 (≈ 3.81 µM) | 2 (≈ 3.81 µM) | 2 (≈ 3.81 µM) | 4 (≈ 7.62 µM) | 4 (≈ 7.62 µM) | 4 (≈ 7.62 µM) | 4 (≈ 7.62 µM) | 8 (≈ 15.2 µM) | 8 (≈ 15.2 µM) | 32 (≈ 61 µM) | 8 (≈ 15.2 µM) | 16 (≈ 30.5 µM) | > 128 | 16 (≈ 30.5 µM) | 8 (≈ 15.2 µM) | 32 (≈ 61 µM) | 13.3 (≈ 25.4 µM) | 4 (≈ 7.62 µM) | 1 (≈ 1.91 µM) | MIC [21]: 2 µg/mL (≈ 3.81 µM); MIC [22]: 2 µg/mL (≈ 3.81 µM); MIC [23]: 8 µg/mL (≈ 15.2 µM); MIC [24]: 8 µg/mL (≈ 15.2 µM); MIC [25]: 4 µg/mL (≈ 7.62 µM); MIC [26]: 8 µg/mL (≈ 15.2 µM); MIC [27]: 8 µg/mL (≈ 15.2 µM); MIC [28]: 16 µg/mL (≈ 30.5 µM); MIC [29]: 16 µg/mL (≈ 30.5 µM); MIC [30]: > 128 µg/mL; MIC [31]: > 128 µg/mL; MIC [32]: 8 µg/mL (≈ 15.2 µM); MIC [33]: 64 µg/mL (≈ 122 µM); MIC [34]: 8 µg/mL (≈ 15.2 µM); MIC [35]: 16 µg/mL (≈ 30.5 µM); MIC [36]: 16 µg/mL (≈ 30.5 µM); MIC [37]: 8 µg/mL (≈ 15.2 µM)
3 | CN(C)C(=N)c1ccc2cc(-c3ccc4ccc(-c5cc6ccc(C(=N)N(C)C)cc6[nH]5)cc4c3)[nH]c2c1 | 4 (≈ 8.02 µM) | 4 (≈ 8.02 µM) | 4 (≈ 8.02 µM) | 8 (≈ 16 µM) | 128 (≈ 257 µM) | 128 (≈ 257 µM) | 128 (≈ 257 µM) | 32 (≈ 64.2 µM) | > 128 | > 128 | > 128 | > 128 | > 128 | > 128 | > 128 | > 128 | > 128 | 13.6 (≈ 27.4 µM) | 64 (≈ 128 µM) | 4 (≈ 8.02 µM) | MIC [21]: 4 µg/mL (≈ 8.02 µM); MIC [22]: 4 µg/mL (≈ 8.02 µM); MIC [23]: 128 µg/mL (≈ 257 µM); MIC [24]: 128 µg/mL (≈ 257 µM); MIC [25]: 16 µg/mL (≈ 32.1 µM); MIC [26]: > 128 µg/mL; MIC [27]: > 128 µg/mL; MIC [28]: > 128 µg/mL; MIC [29]: > 128 µg/mL; MIC [30]: > 128 µg/mL; MIC [31]: > 128 µg/mL; MIC [32]: > 128 µg/mL; MIC [33]: > 128 µg/mL; MIC [34]: > 128 µg/mL; MIC [35]: > 128 µg/mL; MIC [36]: > 128 µg/mL; MIC [37]: > 128 µg/mL
